# In US20040024024A1, “Aromatic sulfone hydroxamates and their use as protease inhibitors” (priority 2001, published 2004):
# Columns and labels:
# Test in all cases: In vitro MMP inhibition, IC50 determination (fluorogenic substrate I)
# Type in all cases: biochemical
# Human recombinant MMP-13 = molecular target: T1, Human recombinant MMP-13 (Homo sapiens, UniProt P45452)
# T1 construct: made in house; host or cells: baculovirus / insect cells
# Procedure, shortened: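 Fluorescence at 415 nm (excitation 328 nm) reports Gly-Leu cleavage of 4 μM quenched methoxycoumarin peptide substrate I. Human recombinant MMP-13, activated by trypsin or APMA, was incubated at room temperature with varied inhibitor concentrations in pH 7.5 Tris/NaCl/CaCl2 buffer; IC50 derived from reduced fluorescence.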
# Human recombinant MMP-9 = molecular target: T2, Human recombinant MMP-9 (Homo sapiens, UniProt P14780)
# T2 construct: made in house; host or cells: MMP-9-transfected HT1080 cells (spent media)
# T2 sequence (P14780 107-707 limits assumed): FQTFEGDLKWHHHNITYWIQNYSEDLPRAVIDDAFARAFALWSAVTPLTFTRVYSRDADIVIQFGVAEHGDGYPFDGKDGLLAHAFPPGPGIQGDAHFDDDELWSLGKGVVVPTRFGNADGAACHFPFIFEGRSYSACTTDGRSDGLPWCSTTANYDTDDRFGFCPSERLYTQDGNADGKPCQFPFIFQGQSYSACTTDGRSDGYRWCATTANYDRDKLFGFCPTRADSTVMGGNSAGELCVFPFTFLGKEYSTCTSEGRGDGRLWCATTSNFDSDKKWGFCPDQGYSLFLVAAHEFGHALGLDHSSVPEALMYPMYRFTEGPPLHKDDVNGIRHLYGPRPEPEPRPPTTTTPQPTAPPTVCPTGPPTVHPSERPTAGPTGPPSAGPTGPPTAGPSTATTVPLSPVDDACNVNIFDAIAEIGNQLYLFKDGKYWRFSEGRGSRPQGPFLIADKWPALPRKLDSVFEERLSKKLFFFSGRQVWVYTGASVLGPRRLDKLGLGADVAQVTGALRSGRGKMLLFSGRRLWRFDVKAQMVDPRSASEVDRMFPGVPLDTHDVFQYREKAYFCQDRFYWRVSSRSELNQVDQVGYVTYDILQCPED
# Procedure, shortened: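 MMP-9 proenzyme purified from transfected HT1080 cell media, activated with APMA or trypsin. Compound dilutions in pH 7.5 Tris/NaCl/CaCl2 buffer with 0.05% polyoxyethylene 23 lauryl ether, incubated at room temperature with 4 μM MCA/Dpa substrate I. IC50 from fluorescence loss (ex 328, em 415 nm) versus inhibitor concentration.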
# Human recombinant MMP-2 = molecular target: T3, Human recombinant MMP-2 (Homo sapiens, UniProt P08253)
# T3 construct: made in house; host or cells: MMP-2-transfected p2AHT2 cells
# T3 sequence (P08253 110-660): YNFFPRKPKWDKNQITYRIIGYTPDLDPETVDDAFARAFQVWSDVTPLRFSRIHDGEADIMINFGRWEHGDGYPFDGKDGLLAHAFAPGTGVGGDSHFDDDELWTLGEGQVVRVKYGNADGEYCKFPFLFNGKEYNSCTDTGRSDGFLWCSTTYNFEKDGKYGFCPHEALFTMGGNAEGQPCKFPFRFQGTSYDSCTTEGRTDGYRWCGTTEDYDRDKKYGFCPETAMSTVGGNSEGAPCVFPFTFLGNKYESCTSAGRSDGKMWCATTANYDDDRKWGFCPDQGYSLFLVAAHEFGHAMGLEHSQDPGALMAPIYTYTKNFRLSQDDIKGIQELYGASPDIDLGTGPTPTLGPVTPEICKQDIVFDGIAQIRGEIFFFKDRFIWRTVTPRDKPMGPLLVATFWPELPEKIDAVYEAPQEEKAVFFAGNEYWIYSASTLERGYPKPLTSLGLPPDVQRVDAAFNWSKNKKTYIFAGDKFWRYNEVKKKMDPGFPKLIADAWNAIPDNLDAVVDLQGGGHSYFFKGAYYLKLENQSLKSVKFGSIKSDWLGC
# Procedure, shortened: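 APMA- or trypsin-activated recombinant MMP-2 was incubated at room temperature with serial inhibitor dilutions in Tris buffer pH 7.5 (100 mM NaCl, 10 mM CaCl2, 0.05% Brij), with DMSO from 1% stocks, and 4 μM substrate I. Cleavage was read by fluorescence at 328/415 nm; IC50 was taken from the loss of fluorescence versus inhibitor concentration.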
# Human recombinant MMP-1 = molecular target: T4, Human recombinant MMP-1 (Homo sapiens, UniProt P03956)
# T4 construct: made in house; host or cells: MMP-1-transfected HT-1080 cells (spent media)
# T4 sequence (P03956 100-469): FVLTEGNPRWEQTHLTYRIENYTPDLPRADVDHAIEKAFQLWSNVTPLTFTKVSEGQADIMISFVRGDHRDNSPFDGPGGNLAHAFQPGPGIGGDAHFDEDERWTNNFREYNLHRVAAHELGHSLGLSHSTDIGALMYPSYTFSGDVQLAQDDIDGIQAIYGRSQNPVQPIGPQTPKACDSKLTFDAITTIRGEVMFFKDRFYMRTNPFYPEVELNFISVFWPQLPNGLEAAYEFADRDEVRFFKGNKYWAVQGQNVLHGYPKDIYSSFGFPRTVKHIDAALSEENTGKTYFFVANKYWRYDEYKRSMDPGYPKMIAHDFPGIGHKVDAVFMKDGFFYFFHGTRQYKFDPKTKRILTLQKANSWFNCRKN
# Procedure, shortened: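 APMA- or trypsin-activated enzyme, purified from spent media of transfected HT-1080 cells, incubated at room temperature with 4 μM MCA-Pro-Leu-Gly-Leu-Dpa-Ala-Arg-NH2 and graded inhibitor in Tris buffer pH 7.5 (10 mM CaCl2, 0.05% Brij). Cleavage read by fluorescence (ex 328/em 415 nm); IC50 from fluorescence reduction versus inhibitor concentration.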
# Human recombinant MMP-14 = molecular target: T5, Human recombinant MMP-14 (Homo sapiens, UniProt P50281)
# T5 construct: The catalytic domain enzyme was expressed in E. coli inclusion bodies, solubilized in urea; made in house
# Procedure, shortened: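 Catalytic-domain MMP-14, expressed in E. coli and refolded, activated with APMA or trypsin; compounds incubated at room temperature with 4 μM fluorogenic substrate I (MCA-PLGL-Dpa-AR-NH2) in Tris/NaCl/CaCl2 buffer, pH 7.5. Fluorescence at ex 328/em 415 nm; IC50 from loss of fluorescence versus inhibitor concentration.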
# [1] = value outside parentheses (Ki in parenthesis)
SMILES,IC50 (Human recombinant MMP-13; value outside parenthesis),IC50 (Human recombinant MMP-9; value outside parenthesis),IC50 (Human recombinant MMP-2; value outside parenthesis),IC50 (Human recombinant MMP-1; value outside parenthesis),IC50 (Human recombinant MMP-14; value outside parenthesis),IC50 (Human recombinant MMP-13; [1]),IC50 (Human recombinant MMP-9; [1]),IC50 (Human recombinant MMP-2; [1]),IC50 (Human recombinant MMP-1; [1]),IC50 (Human recombinant MMP-14; [1]),further results
O=C(NO)C1(S(=O)(=O)c2ccc(OCCOCc3cccc(OC(F)(F)F)c3)cc2)CCOCC1 [Example 660],,,,,,,,,,,IC50 (Human recombinant MMP-13; value outside parentheses): 1.41 nM; IC50 (Human recombinant MMP-9; value outside parentheses): 83.1 nM; IC50 (Human recombinant MMP-2; value outside parentheses): 18.7 nM; IC50 (Human recombinant MMP-1; value outside parentheses): 7350 nM; IC50 (Human recombinant MMP-14; value outside parentheses): 3490 nM
COc1ccc(-c2nnn(CCCOc3ccc(S(=O)(=O)C4(C(=O)NO)CCOCC4)cc3)n2)cc1 [Example 252],0.2 nM,1050 nM,47.9 nM,5600 nM,> 10000 nM,,,,,,
CCc1ccc(N2CCN(CCCOc3ccc(S(=O)(=O)C4(C(=O)NO)CCOCC4)cc3)C2=O)cc1 [Example 191],9.5 nM,383 nM,341 nM,6960 nM,> 10000 nM,,,,,,
O=C(NO)C1(S(=O)(=O)c2ccc(OCCCS(=O)(=O)C3CCCCC3)cc2)CCOCC1 [Example 293],,,,,,2.6 nM,448 nM,2.3 nM,6150 nM,> 10000 nM,
CN(C)c1ccc(C(=O)NCCCOc2ccc(S(=O)(=O)C3(C(=O)NO)CCN(C4CC4)CC3)cc2)cc1 [Example 406],,,,,,4 nM,> 10000 nM,2200 nM,> 10000 nM,> 10000 nM,
Cc1cc(-c2nnc(CCCOc3ccc(S(=O)(=O)C4(C(=O)NO)CCOCC4)cc3)o2)ccc1OC(C)C [Example 294],,,,,,4.3 nM,448 nM,100 nM,4620 nM,> 10000 nM,
Cc1cc(C(=O)CCCCOc2ccc(S(=O)(=O)C3(C(=O)NO)CCN(C4CC4)CC3)cc2)ccc1OC(C)C [Example 254],1.7 nM,968 nM,138 nM,> 10000 nM,> 10000 nM,,,,,,
COc1ccc(CC(=O)NCCOc2ccc(S(=O)(=O)C3(C(=O)NO)CCOCC3)cc2)cc1 [Example 616],,,,,,,,,,,IC50 (Human recombinant MMP-13; value outside parentheses): 2 nM; IC50 (Human recombinant MMP-9; value outside parentheses): 54.8 nM; IC50 (Human recombinant MMP-2; value outside parentheses): 5.3 nM; IC50 (Human recombinant MMP-1; value outside parentheses): 1580 nM; IC50 (Human recombinant MMP-14; value outside parentheses): 1970 nM
COCCN1CCC(C(=O)NO)(S(=O)(=O)c2ccc(OCCCn3nnc(-c4ccc(SC)cc4)n3)cc2)CC1 [Example 130],0.3 nM,50.2 nM,4.7 nM,4610 nM,500 nM,,,,,,

# Now from value to compound, other results behind:
IC50 (Human recombinant MMP-13; value outside parenthesis),IC50 (Human recombinant MMP-9; value outside parenthesis),IC50 (Human recombinant MMP-2; value outside parenthesis),IC50 (Human recombinant MMP-1; value outside parenthesis),IC50 (Human recombinant MMP-14; value outside parenthesis),IC50 (Human recombinant MMP-13; [1]),IC50 (Human recombinant MMP-9; [1]),IC50 (Human recombinant MMP-2; [1]),IC50 (Human recombinant MMP-1; [1]),IC50 (Human recombinant MMP-14; [1]),SMILES,further results
,,,,,2 nM,3600 nM,33.6 nM,> 10000 nM,6240 nM,O=C(CCCOc1ccc(S(=O)(=O)C2(C(=O)NO)CCOCC2)cc1)c1cccc2ccccc12 [Example 352],
0.8 nM,16.4 nM,3.6 nM,> 10000 nM,> 10000 nM,,,,,,CCOc1ccc2nc(SCCCOc3ccc(S(=O)(=O)C4(C(=O)NO)CCOCC4)cc3)sc2c1 [Example 287],
,,,,,0.8 nM,1650 nM,33.1 nM,> 10000 nM,> 10000 nM,O=C(CCCOc1ccc(S(=O)(=O)C2(C(=O)NO)CCOCC2)cc1)c1ccc(-c2ccccc2)cc1 [Example 356],
4.7 nM,1470 nM,193 nM,> 10000 nM,> 10000 nM,,,,,,O=C1CN(c2ccccc2Cl)C(=O)N1CCCOc1ccc(S(=O)(=O)C2(C(=O)NO)CCOCC2)cc1 [Example 224],
1.8 nM,23.6 nM,16.7 nM,> 10000 nM,> 10000 nM,,,,,,COc1ccc2sc(SCCCOc3ccc(S(=O)(=O)C4(C(=O)NO)CCOCC4)cc3)nc2c1 [Example 285],
,,,,,25 nM,6000 nM,2000 nM,> 10000 nM,> 10000 nM,O=C(NO)C1(S(=O)(=O)c2ccc(OCCCSCc3ccccc3)cc2)CCOCC1 [Example 439],
